# Test results as given in patent US7163949B1, “4-phenyl substituted tetrahydroisoquinolines and use thereof” (AMR Technology, Inc., priority 1999, dated 2007).
# Counter-ions that a name gives are not always drawn.
# Test system: not given
# Conditions: not given
row,SMILES,melting point
1,CNCc1ccc2c(c1F)CN(C)CC2c1ccccc1 (stereo not shown) (as salt: HCl),185 to 205 °C
2,CN1Cc2cc(CO)ccc2C(c2ccccc2)C1 (stereo not shown) (as salt: HCl),237 to 240 °C (dec.)
3,CN1Cc2cc(C(F)(F)F)ccc2C(c2ccccc2)C1 (stereo not shown),257 to 275 °C
4,CN1Cc2c(CO)cccc2C(c2ccccc2)C1 (stereo not shown),144 to 146 °C
5,CN1Cc2cc(OC(F)(F)F)ccc2C(c2ccccc2)C1 (stereo not shown),150 to 151 °C (dec.)
6,Cc1cc(F)c2c(c1)C(C)N(C)C(F)C2c1ccccc1 (stereo not shown) (as salt: HCl),194 to 197 °C (dec.)
7,CN1Cc2cc(Oc3ccccc3)ccc2C(c2ccccc2)C1 (stereo not shown),175 to 176 °C (dec.)
8,Cc1ccc2c(c1)CN(C)CC2c1ccc(F)c(C)c1 (stereo not shown),174 to 175 °C
9,FCc1ccc2c(c1CF)CN(CF)CC2c1ccccc1 (stereo not shown),108 to 113 °C
10,Cc1ccc2c(c1F)CN(C)CC2c1ccccc1 (stereo not shown) (as salt: hydrochloride),215 to 216 °C
11,CN1Cc2cc(OCc3ccccc3)ccc2C(c2ccccc2)C1 (stereo not shown),155 to 156 °C
12,Cc1c(F)ccc2c1CN(C)CC2c1ccccc1 (stereo not shown),185 to 186 °C
13,COc1c(C)ccc2c1CN(C)CC2c1ccccc1 (stereo not shown),130 to 131 °C
14,Cc1ccc2c(c1)C(C)N(C)CC2c1ccccc1 (stereo not shown),87 to 89 °C
15,Cc1ccc2c(c1O)CN(C)CC2c1ccccc1 (stereo not shown),260 to 261 °C

# Test system: dopamine transporter protein over the norepinephrine transporter protein
# Conditions: selectivity for dopamine transporter protein over norepinephrine transporter protein; cited from earlier work
row,SMILES,DAT/NET Ki ratio
1,COC(=O)C(c1ccccc1)C1CCCCN1 (stereo not shown) [Methylphenidate],0.1
